Measurements: patent publication US5374541A, “Combined use of β-galactosidase and sialyltransferase coupled with in situ regeneration of CMP-sialic acid for one pot synthesis of oligosaccharides” (priority 1993, dated 1994)
Entries after “also recorded” stand apart in the source; their conditions may differ. Like-named read-outs stand apart in the source and are kept apart here.

Key:
[1] = molecular target: T1, α(2,3)sialyltransferase (EC 2.4.99.6) (Rattus norvegicus, UniProt Q02734); details: Table 1; cited from earlier work
T1 sequence (Q02734 1-374): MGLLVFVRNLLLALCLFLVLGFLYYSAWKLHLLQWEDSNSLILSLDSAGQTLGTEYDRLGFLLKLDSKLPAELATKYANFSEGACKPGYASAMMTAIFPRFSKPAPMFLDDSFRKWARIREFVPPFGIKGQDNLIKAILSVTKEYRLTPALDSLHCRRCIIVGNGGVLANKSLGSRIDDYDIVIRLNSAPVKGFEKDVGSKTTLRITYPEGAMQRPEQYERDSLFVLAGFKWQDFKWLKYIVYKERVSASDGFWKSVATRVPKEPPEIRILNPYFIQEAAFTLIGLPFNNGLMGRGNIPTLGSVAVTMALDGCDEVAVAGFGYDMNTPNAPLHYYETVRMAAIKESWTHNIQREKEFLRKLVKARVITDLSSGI

[2] = molecular target: T2, α(2,3)sialyltransferase (EC 2.4.99.4) (Sus scrofa, UniProt Q02745); details: Table 1; cited from earlier work
T2 sequence (Q02745 1-343): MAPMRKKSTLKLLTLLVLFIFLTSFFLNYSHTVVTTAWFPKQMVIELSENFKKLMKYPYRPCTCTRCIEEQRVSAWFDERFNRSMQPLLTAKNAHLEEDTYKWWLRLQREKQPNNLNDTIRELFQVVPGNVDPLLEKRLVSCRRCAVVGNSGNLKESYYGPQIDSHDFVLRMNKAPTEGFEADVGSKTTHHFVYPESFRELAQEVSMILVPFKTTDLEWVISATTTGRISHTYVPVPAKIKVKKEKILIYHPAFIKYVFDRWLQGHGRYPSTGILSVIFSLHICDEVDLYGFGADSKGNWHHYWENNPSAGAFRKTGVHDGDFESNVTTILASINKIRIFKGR

[3] = system: B. circulans β-galactosidase (EC 3.2.1.23); assay: Relative rates of galactoside substrates with B. circulans β-galactosidase; assay type: biochemical, Bacillus circulans; details: Lac = 100
Excerpt: That β-galactosidase accepts the following substrates with the indicated, parenthesized relative rates: Lac (100), o-nitrophenyl β-galactoside (10.6), methyl β-galactoside (1).

[4] = molecular target: T3, α(2,6)sialyltransferase, rat liver (Rattus norvegicus, UniProt P13721); details: cited from earlier work; for substrate quality / sialylated product formation: Table 1 footnotes 4 and 5, rat liver α(2,6)sialyltransferase, Weinstein et al.
T3 sequence (P13721 1-403): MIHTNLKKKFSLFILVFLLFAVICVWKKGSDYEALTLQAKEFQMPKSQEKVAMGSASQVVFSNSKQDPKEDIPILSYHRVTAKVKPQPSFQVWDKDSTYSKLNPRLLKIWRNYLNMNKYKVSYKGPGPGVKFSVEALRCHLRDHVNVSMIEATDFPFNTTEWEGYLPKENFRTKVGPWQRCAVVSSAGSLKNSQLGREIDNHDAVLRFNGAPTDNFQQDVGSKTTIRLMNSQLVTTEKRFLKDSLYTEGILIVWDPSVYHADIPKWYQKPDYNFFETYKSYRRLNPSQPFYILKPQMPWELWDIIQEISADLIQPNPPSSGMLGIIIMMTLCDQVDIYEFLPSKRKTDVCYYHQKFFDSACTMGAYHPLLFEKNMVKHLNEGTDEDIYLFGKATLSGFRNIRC

[5] = molecular target: T4, α(2,6)sialyltransferase (EC 2.4.99.1) (Bos taurus, UniProt O18974); details: cited from earlier work
T4 construct: literature kinetics (Beyer, Paulson) and synthesis tests
T4 sequence (O18974 1-405): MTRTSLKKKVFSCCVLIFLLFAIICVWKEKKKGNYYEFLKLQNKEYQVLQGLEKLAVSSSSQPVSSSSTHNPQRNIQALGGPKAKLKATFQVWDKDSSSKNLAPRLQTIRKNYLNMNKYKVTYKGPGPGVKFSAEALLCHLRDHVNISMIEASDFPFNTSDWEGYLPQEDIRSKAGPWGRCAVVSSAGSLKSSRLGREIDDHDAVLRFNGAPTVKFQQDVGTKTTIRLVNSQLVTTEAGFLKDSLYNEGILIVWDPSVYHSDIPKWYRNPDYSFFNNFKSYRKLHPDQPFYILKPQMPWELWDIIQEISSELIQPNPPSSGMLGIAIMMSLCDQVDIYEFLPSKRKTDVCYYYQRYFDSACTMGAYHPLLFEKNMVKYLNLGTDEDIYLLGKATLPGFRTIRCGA

[6] = molecular target: T4, α(2,6)sialyltransferase (EC 2.4.99.1); assay: Sialylation of prepared galactosyl glycosides by the sialyltransferase; assay type: biochemical, bovine; details: one pot reaction, result in words
Experimental: A representative synthesis of Neu5Acα(2,6)-LacNAc (Compound 1) is discussed below. To a 1.07 mL HEPES buffer (0.2M, 20 mM MgCl2, 5.3 mM MnCl2, 20 mM KCl, pH 7.5) containing 12.3 mg Neu5Ac (20 mM; provided by Dr. U. Kragl, Research Center, Julich, Germany), 180 mg Lac (250 mM), 265 mg GlcNAc (600 mM), 30.2 mg PEP (trisodium salt, 40 mM), CMP (2 mM) and ATP (0.2 mM) were added myokinase (MK, EC 2.7.4.3; 6 U), pyruvate kinase (PK, EC 2.7.1.40; 80 U), inorganic pyrophosphatase (PPase, EC 3.6.1.1; 4 U), CMP-Neu5Ac synthetase (EC 2.7.43; 0.32 U), α(2,6)sialyltransferase (EC 2.4.99.1; 0,052 U) and 1 mg of crude β-galactosidase (EC 3.2.1.23) from Bacillus Circulans (provided by Daiwa Kasei KK, Osaka, Japan). The total volume was adjusted to 2 mL.
In a similar manner, the sialylated saccharide (Compound 2) was also prepared. […] Compound 10 was prepared as follows.

[7] = aqueous buffers as are used here; cited from earlier work
[8] = molecular target: T3, α(2,6)sialyltransferase, rat liver; assay: Km and Vmax of acceptor molecules for rat liver α(2,6)sialyltransferase; assay type: biochemical; details: Table 1, footnoted values approximated from Weinstein et al.
Excerpt: Km is the Michaelis constant in units of moles/liter. Vmax is the reaction velocity at a constant concentration of enzyme, and is in units of enzyme units/milligram, one enzyme unit being that amount of enzyme that will catalyze the transformation of one micromole of substrate per minute under optimal conditions. The value of Km /Vmax is the slope of the line obtained from a Lineweaver-Burk plot.
Values for Km and Vmax for several galactosyl glycosides are available in the published literature and can be obtained using well known enzymatic techniques.

[9] = Table 1, α(2,6)sialyltransferase, rat liver
[10] = Table 1, α(2,6)sialyltransferase EC 2.4.99.1
[11] = α(2,6)sialyltransferase, Paulson et al.

## CC(=O)N[C@H]1[C@H](O[C@H]2[C@@H](O)[C@@H](CO)O[C@@H](O[C@H]3[C@H](O)[C@@H](O)C(O)O[C@@H]3CO)[C@@H]2O)O[C@H](CO)[C@@H](O)[C@@H]1O[C@@H]1O[C@H](CO)[C@H](O)[C@H](O)[C@H]1O (stereo partly shown) [lacto-N-tetraose, Galβ1→3GlcNAcβ1→3Galβ1→4Glc]
[1]
  Vmax: 1.00 units/mg
[2]
  Vmax: 3.6 units/mg

## OC[C@H]1O[C@@H](O[C@H]2[C@H](O)[C@@H](O)C(O)O[C@@H]2CO)[C@H](O)[C@@H](O)[C@H]1O (stereo partly shown) [Galβ1→4Glc]
[3]
  relative rate as substrate: 100
[1]
  Km: 9.4 mM
  Vmax: 0.91 units/mg
[2]
  Vmax: 0.62 units/mg
[4]; [9]
  Vmax: 0.30 units/mg
[5]; [10]
  Vmax: 1.02 units/mg
[5]; [11]
  Vmax: 1.02

## OC[C@H]1O[C@@H](O[C@H]2[C@H](O)[C@@H](O)C(O)S[C@@H]2CO)[C@H](O)[C@@H](O)[C@H]1O (stereo partly shown) [Compound 3, Galβ1→4(5-thio)Glc]
[6]
  substrate for the sialyltransferase / sialylated in the reaction: not a substrate; also recorded: not sialylated

## CC(=O)NC1C(O)CC(OP(=O)(O)OCC2OC(n3ccc(N)nc3=O)C(O)C2O)(C(=O)O)OC1C(O)C(O)CO (stereo not shown) [CMP-sialic acid]
[7]
  half-life: only a few hours

## CC(=O)N[C@H]1C(O)O[C@H](CO)[C@H](O)[C@@H]1O[C@@H]1O[C@H](CO)[C@H](O)[C@H](O)[C@H]1O (stereo partly shown) [Galβ1→3GalNAc]
[2]
  Km: 0.21 mM
  Vmax: 8.9 units/mg
[4]
  substrate quality / sialylated product formation: No sialylated product was reported to be formed
[8]
  Km/Vmax: very large

## CO[C@@H]1O[C@H](CO)[C@H](O)[C@H](O)[C@H]1O [methyl β-galactoside]
[3]
  relative rate as substrate: 1

## CC(=O)N[C@H]1C(O)O[C@H](CO)[C@@H](O)[C@@H]1O[C@@H]1O[C@H](CO)[C@H](O)[C@H](O)[C@H]1O (stereo partly shown) [Galβ1→3GlcNAc]
[1]
  Vmax: 1.16 units/mg
[2]
  Km: 65 mM
  Vmax: 4.4 units/mg
[4]
  substrate quality / sialylated product formation: poor substrate

## O=[N+]([O-])c1ccccc1O[C@@H]1O[C@H](CO)[C@H](O)[C@H](O)[C@H]1O [o-nitrophenyl β-galactoside]
[3]
  relative rate as substrate: 10.6

## CC(=O)N[C@H]1C(O)O[C@H](CO[C@@H]2O[C@H](CO)[C@H](O)[C@H](O)[C@H]2O)[C@@H](O)[C@@H]1O (stereo partly shown) [Galβ1→6GlcNAc]
[2]
  Km: 29 mM
  Vmax: 0.24 units/mg
[5]; [10]
  Vmax: 0.03 units/mg
[5]; [11]
  Vmax: 0.03
[5]; α(2,6)sialyltransferase, low Vmax
  Vmax: 3%

## [N-]=[N+]=N[C@H]1C(O)O[C@H](CO)[C@@H](O[C@@H]2O[C@H](CO)[C@H](O)[C@H](O)[C@H]2O)[C@@H]1O (stereo partly shown) [Compound 4, Galβ1→4(2-N3)Glc]
[6]
  substrate for the sialyltransferase / sialylated in the reaction: very weak substrate; also recorded: sialylated, but poorly

## CC(=O)N[C@H]1C(O)O[C@H](CO)[C@@H](O[C@@H]2O[C@H](CO)[C@H](O)[C@H](O)[C@H]2O)[C@@H]1O (stereo partly shown) [Galβ1→4GlcNAc]
[1]
  Vmax: 0.75 units/mg
[2]
  Km: 42 mM
  Vmax: 0.11 units/mg
[4]; [9]
  Vmax: 0.93 units/mg
[4]; Table 1, α(2,6)sialyltransferase, rat liver, from Weinstein et al.
  Km: 1.62 mM
[5]; [10]
  Vmax: 1 units/mg
[5]; [11]
  Vmax: 1.00
